Assays:
[1] = molecular target: T1, P2X purinoceptor 7 (Rattus norvegicus, UniProt Q64663); assay: Inhibition of rat P2X7 receptor
T1 sequence (Q64663 whole entry): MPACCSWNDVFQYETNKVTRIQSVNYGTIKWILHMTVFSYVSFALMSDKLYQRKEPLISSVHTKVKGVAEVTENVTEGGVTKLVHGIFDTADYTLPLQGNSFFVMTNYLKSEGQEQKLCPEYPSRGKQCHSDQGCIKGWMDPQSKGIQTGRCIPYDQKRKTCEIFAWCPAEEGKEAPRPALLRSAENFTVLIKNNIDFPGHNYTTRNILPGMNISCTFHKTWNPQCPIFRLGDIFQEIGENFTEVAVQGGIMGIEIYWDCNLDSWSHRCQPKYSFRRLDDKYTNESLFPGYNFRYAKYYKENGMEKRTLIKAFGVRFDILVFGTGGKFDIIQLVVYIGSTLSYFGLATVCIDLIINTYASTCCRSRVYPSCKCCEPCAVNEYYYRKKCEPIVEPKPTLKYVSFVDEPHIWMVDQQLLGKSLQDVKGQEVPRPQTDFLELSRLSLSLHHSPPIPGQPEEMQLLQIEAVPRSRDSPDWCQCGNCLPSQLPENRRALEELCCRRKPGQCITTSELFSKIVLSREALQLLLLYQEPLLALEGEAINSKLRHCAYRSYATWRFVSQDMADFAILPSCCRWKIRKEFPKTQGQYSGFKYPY

[2] = molecular target: T2, P2X purinoceptor 7 (Homo sapiens, UniProt Q99572); assay: Inhibition of human P2X7 receptor
T2 sequence (Q99572 whole entry): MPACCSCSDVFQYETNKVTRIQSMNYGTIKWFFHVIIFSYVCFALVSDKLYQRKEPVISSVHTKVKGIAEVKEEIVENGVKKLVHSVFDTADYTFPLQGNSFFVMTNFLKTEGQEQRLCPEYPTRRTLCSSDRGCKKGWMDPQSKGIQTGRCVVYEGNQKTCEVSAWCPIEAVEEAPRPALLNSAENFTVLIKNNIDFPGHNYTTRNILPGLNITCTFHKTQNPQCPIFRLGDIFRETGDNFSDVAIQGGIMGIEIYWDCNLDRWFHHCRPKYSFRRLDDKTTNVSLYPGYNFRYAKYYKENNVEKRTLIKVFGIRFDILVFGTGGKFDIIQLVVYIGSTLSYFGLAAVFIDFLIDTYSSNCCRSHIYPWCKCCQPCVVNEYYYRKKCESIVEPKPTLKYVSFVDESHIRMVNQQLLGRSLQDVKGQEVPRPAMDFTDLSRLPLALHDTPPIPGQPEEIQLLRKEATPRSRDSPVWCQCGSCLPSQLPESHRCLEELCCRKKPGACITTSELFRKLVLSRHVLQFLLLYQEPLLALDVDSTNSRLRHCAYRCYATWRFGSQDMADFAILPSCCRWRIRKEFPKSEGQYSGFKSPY

[3] = molecular target: T3, P2X7 purinoceptor (Canis lupus familiaris, UniProt Q64F92); assay: Inhibition of dog P2X7 receptor
T3 sequence (Q64F92 whole entry): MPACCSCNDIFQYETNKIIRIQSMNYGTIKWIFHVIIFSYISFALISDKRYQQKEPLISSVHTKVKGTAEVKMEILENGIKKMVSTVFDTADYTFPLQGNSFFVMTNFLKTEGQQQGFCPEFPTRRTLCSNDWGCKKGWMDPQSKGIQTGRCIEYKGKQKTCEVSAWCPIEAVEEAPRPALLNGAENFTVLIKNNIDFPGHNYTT

[4] = Inhibition of rhesus macaque P2X7 receptor; parameters: species or system Macaca mulatta
[5] = molecular target: T4, P2X purinoceptor (Cavia porcellus, UniProt A9QW74); assay: Inhibition of guinea pig P2X7 receptor
T4 sequence (A9QW74 whole entry): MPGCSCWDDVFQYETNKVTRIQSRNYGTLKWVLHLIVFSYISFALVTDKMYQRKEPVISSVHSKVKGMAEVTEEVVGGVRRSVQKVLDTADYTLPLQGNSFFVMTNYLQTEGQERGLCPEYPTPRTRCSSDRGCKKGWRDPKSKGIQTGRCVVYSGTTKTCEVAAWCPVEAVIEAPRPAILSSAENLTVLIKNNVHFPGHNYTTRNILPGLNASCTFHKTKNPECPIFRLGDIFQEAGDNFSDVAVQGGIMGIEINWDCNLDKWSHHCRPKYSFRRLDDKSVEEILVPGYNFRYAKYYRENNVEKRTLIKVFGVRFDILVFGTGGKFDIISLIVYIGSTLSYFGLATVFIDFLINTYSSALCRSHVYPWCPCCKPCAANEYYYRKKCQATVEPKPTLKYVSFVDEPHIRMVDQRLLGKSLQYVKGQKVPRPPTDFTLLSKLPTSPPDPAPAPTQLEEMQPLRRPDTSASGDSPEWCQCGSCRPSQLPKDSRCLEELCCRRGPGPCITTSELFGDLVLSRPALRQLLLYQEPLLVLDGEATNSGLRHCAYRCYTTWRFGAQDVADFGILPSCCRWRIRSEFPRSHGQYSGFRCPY

Row | IC50 [1] | IC50 [2] | IC50 [3] | IC50 [4] | IC50 [5] | Compound
1 | > 100 µM | 0.1 µM | 0.01 µM | 0.086 µM | 0.13 µM | CN([C@@H](Cc1ccc(OS(=O)(=O)c2cccc3cnccc23)cc1)C(=O)N1CCN(c2ccccc2)CC1)S(=O)(=O)c1cccc2cnccc12
2 | > 100 µM | 0.031 µM |  | 0.023 µM |  | O=C1CSC(=O)N1C(CCc1ccncc1)COc1ccc(-c2cccc([N+](=O)[O-])c2)cc1 (stereo not given)

Row | Compound | IC50 [1] | IC50 [2] | IC50 [3] | IC50 [4] | IC50 [5]
3 | C[S+]([O-])c1ccc(-c2nc(-c3ccncc3)c(-c3ccc(F)cc3)[nH]2)cc1 (stereo not given) [SB-203580] | > 30 µM | 5 µM |  |  | 
